Patent US6518243B1, “Desleucyl glycopeptide antibiotics and methods of making same” (Trustees of Princeton University, priority 1999, dated 2003)

Tests used:
E. faecium ATCC 49624 = test: MIC determination in BHI media, OD600; format: cell-based; conditions: BHI + 0.1% casamino acids, 18 hours at 37° C., ≧90% OD600 inhibition
Summary of the method: (§1)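 Compounds are dissolved and serially diluted in DMSO, then combined with logarithmically growing cells adjusted to roughly 5×10^5 CFU/ml. Plates incubate 18 hours at 37° C before turbidity is measured on a microplate reader.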

E. faecalis ATCC 29212 = test: MIC determination in BHI media, OD600; format: cell-based; conditions: BHI + 0.1% casamino acids, 18 hours at 37° C., ≧90% OD600 inhibition
Summary of the method: as §1

S aureus ATCC 29213 = test: MIC determination in BHI media, OD600; format: cell-based; conditions: BHI + 0.1% casamino acids, 18 hours at 37° C., ≧90% OD600 inhibition
Summary of the method: as §1

S. Aureus ATCC 33591 = test: MIC determination in BHI media, OD600; format: cell-based; conditions: BHI + 0.1% casamino acids, 18 hours at 37° C., ≧90% OD600 inhibition
Summary of the method: as §1

E. faecalis (CL 4877) = test: Zone of inhibition screen, 96 well agar array format; format: cell-based; set-up: scale not given here; conditions: zone of inhibition relative to 1 mg/ml stock solution of p-chlorobiphenylvancomycin
Summary of the method: (§2)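 Compounds are screened one by one for antibacterial effect in an agar array of 96 wells, using the same set of strains throughout.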

S. aureus (ATCC 29213) = test: as above; format: cell-based; set-up: scale not given here; conditions: zone of inhibition relative to 1 mg/ml stock solution of p-chlorobiphenylvancomycin
Summary of the method: as §2

E. faceium (ATCC 49624) = test: as above; format: cell-based, E. faecium; conditions: zone of inhibition relative to 1 mg/ml stock solution of p-chlorobiphenylvancomycin;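 note: score 3 means fourfold and score 4 sixteenfold the reference zone size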
Summary of the method: as §2

MIC E. faecium ATCC 49624 (E. faecium ATCC 49624) [µg/mL]	MIC E. faecalis ATCC 29212 (E. faecalis ATCC 29212) [µg/mL]	MIC S. aureus ATCC 29213 (S aureus ATCC 29213) [µg/mL]	MIC S. aureus ATCC 33591 (S. Aureus ATCC 33591) [µg/mL]	SMILES	zone score, E. faecalis CL 4877 (E. faecalis (CL 4877))	zone score, S. aureus ATCC 29213 (S. aureus (ATCC 29213))	zone score, E. faecium ATCC 49624 (E. faceium (ATCC 49624))
0.12	0.78	0.25	0.25	CC(NCC(N)C(=O)NC1C(=O)NC(CC(N)=O)C(=O)NC2C(=O)NC3C(=O)NC(C(=O)NC(C(=O)O)c4cc(O)cc(O)c4-c4cc3ccc4O)C(O)c3ccc(c(Cl)c3)Oc3cc2cc(c3OC2OC(CO)C(O)C(O)C2OC2CC(C)(NCc3ccc(-c4ccc(Cl)cc4)cc3)C(O)C(C)O2)Oc2ccc(cc2Cl)C1O)=C1C(=O)CC(C)(C)CC1=O (stereo not drawn) [Compound 56]			2
0.12	0.78	0.25	0.25	CCC(C)C(NC)C(=O)NC1C(=O)NC(CC(N)=O)C(=O)NC2C(=O)NC3C(=O)NC(C(=O)NC(C(=O)O)c4cc(O)cc(O)c4-c4cc3ccc4O)C(O)c3ccc(c(Cl)c3)Oc3cc2cc(c3OC2OC(CO)C(O)C(O)C2OC2CC(C)(NCc3ccc(-c4ccc(Cl)cc4)cc3)C(O)C(C)O2)Oc2ccc(cc2Cl)C1O (stereo not drawn) [Compound 330]			
0.12	0.25	0.12	0.12	CC1OC(OC2C(Oc3c4cc5cc3Oc3ccc(cc3Cl)C(O)C3NC(=O)C(NC(=O)C5NC(=O)C(CC(N)=O)NC(=O)C(NC(=O)C(N)CCCCNC(N)=O)C(O)c5ccc(c(Cl)c5)O4)c4ccc(O)c(c4)-c4c(O)cc(O)cc4C(C(=O)O)NC3=O)OC(CO)C(O)C2O)CC(C)(NCc2ccc(-c3ccc(Cl)cc3)cc2)C1O (stereo not drawn) [Compound 61]			
0.12	0.39	0.25	0.25	CNC(C(=O)NC1C(=O)NC(CC(N)=O)C(=O)NC2C(=O)NC3C(=O)NC(C(=O)NC(C(=O)O)c4cc(O)cc(O)c4-c4cc3ccc4O)C(O)c3ccc(c(Cl)c3)Oc3cc2cc(c3OC2OC(CO)C(O)C(O)C2OC2CC(C)(NCc3ccc(-c4ccc(Cl)cc4)cc3)C(O)C(C)O2)Oc2ccc(cc2Cl)C1O)C(C)C (stereo not drawn) [Compound 328]			
0.062	0.39	0.39	0.39	CCOC(=O)NC(CC(N)=O)C(=O)NC1C(=O)NC(CC(N)=O)C(=O)NC2C(=O)NC3C(=O)NC(C(=O)NC(C(=O)O)c4cc(O)cc(O)c4-c4cc3ccc4O)C(O)c3ccc(c(Cl)c3)Oc3cc2cc(c3OC2OC(CO)C(O)C(O)C2OC2CC(C)(NCc3ccc(-c4ccc(Cl)cc4)cc3)C(O)C(C)O2)Oc2ccc(cc2Cl)C1O (stereo not drawn) [Compound 188]	2	2	

Second part, the compound before the results:

SMILES	MIC E. faecium ATCC 49624 (E. faecium ATCC 49624) [µg/mL]	MIC E. faecalis ATCC 29212 (E. faecalis ATCC 29212) [µg/mL]	MIC S. aureus ATCC 29213 (S aureus ATCC 29213) [µg/mL]	MIC S. aureus ATCC 33591 (S. Aureus ATCC 33591) [µg/mL]	zone score, E. faecalis CL 4877 (E. faecalis (CL 4877))	zone score, S. aureus ATCC 29213 (S. aureus (ATCC 29213))	zone score, E. faecium ATCC 49624 (E. faceium (ATCC 49624))
C[C@H]1O[C@H](O[C@H]2[C@H](Oc3c4cc5cc3Oc3ccc(cc3Cl)[C@@H](O)[C@@H](NC(=O)[C@@H](N)Cc3ccccc3)C(=O)N[C@@H](CC(N)=O)C(=O)N[C@H]5C(=O)N[C@H]3C(=O)N[C@H](C(=O)N[C@@H](C(=O)O)c5cc(O)cc(O)c5-c5cc3ccc5O)[C@H](O)c3ccc(c(Cl)c3)O4)O[C@H](CO)[C@@H](O)[C@@H]2O)C[C@@](C)(NCc2ccc(-c3ccc(Cl)cc3)cc2)[C@H]1O [Compound 7]	0.12	0.78	0.39	0.39	2	2	
CSCC[C@@H](N)C(=O)N[C@H]1C(=O)N[C@@H](CC(N)=O)C(=O)N[C@H]2C(=O)N[C@H]3C(=O)N[C@H](C(=O)N[C@@H](C(=O)O)c4cc(O)cc(O)c4-c4cc3ccc4O)[C@H](O)c3ccc(c(Cl)c3)Oc3cc2cc(c3O[C@@H]2O[C@H](CO)[C@@H](O)[C@H](O)[C@H]2O[C@@H]2C[C@@](C)(NCc3ccc(-c4ccc(Cl)cc4)cc3)[C@@H](O)[C@@H](C)O2)Oc2ccc(cc2Cl)[C@H]1O [Compound 15]	0.12	0.25	0.25	0.12	2		
CC(C)[C@H](N)C(=O)N[C@H]1C(=O)N[C@@H](CC(N)=O)C(=O)N[C@H]2C(=O)N[C@H]3C(=O)N[C@H](C(=O)N[C@@H](C(=O)O)c4cc(O)cc(O)c4-c4cc3ccc4O)[C@H](O)c3ccc(c(Cl)c3)Oc3cc2cc(c3O[C@@H]2O[C@H](CO)[C@@H](O)[C@H](O)[C@H]2O[C@@H]2C[C@@](C)(NCc3ccc(-c4ccc(Cl)cc4)cc3)[C@@H](O)[C@@H](C)O2)Oc2ccc(cc2Cl)[C@H]1O [Compound 20]	0.25	0.78	0.25	0.39			2
CSCCC(N)C(=O)NC1C(=O)NC(CC(N)=O)C(=O)NC2C(=O)NC3C(=O)NC(C(=O)NC(C(=O)O)c4cc(O)cc(O)c4-c4cc3ccc4O)C(O)c3ccc(c(Cl)c3)Oc3cc2cc(c3OC2OC(CO)C(O)C(O)C2OC2CC(C)(NCc3ccc(-c4ccc(Cl)cc4)cc3)C(O)C(C)O2)Oc2ccc(cc2Cl)C1O (stereo not drawn) [Compound 41]	0.25	0.78	0.39	0.39	2		2
CC(N)C(=O)NCC(=O)NC1C(=O)NC(CC(N)=O)C(=O)NC2C(=O)NC3C(=O)NC(C(=O)NC(C(=O)O)c4cc(O)cc(O)c4-c4cc3ccc4O)C(O)c3ccc(c(Cl)c3)Oc3cc2cc(c3OC2OC(CO)C(O)C(O)C2OC2CC(C)(NCc3ccc(-c4ccc(Cl)cc4)cc3)C(O)C(C)O2)Oc2ccc(cc2Cl)C1O (stereo not drawn) [Compound 36]	0.12	0.78	0.39	0.39			2
C[C@H]1O[C@H](O[C@H]2[C@H](Oc3c4cc5cc3Oc3ccc(cc3Cl)[C@@H](O)[C@@H](NC(=O)[C@H](N)Cc3ccccc3)C(=O)N[C@@H](CC(N)=O)C(=O)N[C@H]5C(=O)N[C@H]3C(=O)N[C@H](C(=O)N[C@@H](C(=O)O)c5cc(O)cc(O)c5-c5cc3ccc5O)[C@H](O)c3ccc(c(Cl)c3)O4)O[C@H](CO)[C@@H](O)[C@@H]2O)C[C@@](C)(NCc2ccc(-c3ccc(Cl)cc3)cc2)[C@H]1O [Compound 16]	0.12	0.25	0.25	0.25			
CNC(CC(C)C)C(=O)NC1C(=O)NC(CC(N)=O)C(=O)NC2C(=O)NC3C(=O)NC(C(=O)NC(C(=O)O)c4cc(O)cc(O)c4-c4cc3ccc4O)C(O)c3ccc(c(Cl)c3)Oc3cc2cc(c3OC2OC(CO)C(O)C(O)C2OC2CC(C)(NCc3ccc(-c4ccc(Cl)cc4)cc3)C(O)C(C)O2)Oc2ccc(cc2Cl)C1O (stereo not drawn) [Compound 329]	0.031	0.12	0.25	0.12			
CCCCC(N)C(=O)NC1C(=O)NC(CC(N)=O)C(=O)NC2C(=O)NC3C(=O)NC(C(=O)NC(C(=O)O)c4cc(O)cc(O)c4-c4cc3ccc4O)C(O)c3ccc(c(Cl)c3)Oc3cc2cc(c3OC2OC(CO)C(O)C(O)C2OC2CC(C)(NCc3ccc(-c4ccc(Cl)cc4)cc3)C(O)C(C)O2)Oc2ccc(cc2Cl)C1O (stereo not drawn) [Compound 42]	0.39	0.78	0.39	0.39			2
